According to patent US5281603A, “Angiotensin II receptor blocking 2,3,6 substituted quinazolinones” (American Cyanamid Company, priority 1993, dated 1994):

Molecular target: T1, Angiotensin II Receptor (Bos taurus, UniProt P25104)
T1 construct: The brownish tissue forming the adrenal cortex is scraped off and finely minced with scissors before homogenization; from tissue; host or cells: beef adrenal cortex, microsomal membranes (100,000×g pellet)
T1 sequence (P25104 1-359): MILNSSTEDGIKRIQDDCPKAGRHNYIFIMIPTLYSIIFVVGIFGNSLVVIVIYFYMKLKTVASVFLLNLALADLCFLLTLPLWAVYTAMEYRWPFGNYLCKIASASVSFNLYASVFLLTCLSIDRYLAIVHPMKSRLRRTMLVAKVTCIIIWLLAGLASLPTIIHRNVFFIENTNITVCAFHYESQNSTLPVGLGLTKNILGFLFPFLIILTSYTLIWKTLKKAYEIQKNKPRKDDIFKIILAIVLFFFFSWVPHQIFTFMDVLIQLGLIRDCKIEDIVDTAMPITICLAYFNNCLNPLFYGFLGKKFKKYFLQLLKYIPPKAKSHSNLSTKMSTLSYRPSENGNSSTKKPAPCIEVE
Assay: Angiotensin II Receptor Binding: displacement of [^125 I](Sar^1,Ile^8)AngII from beef adrenal cortex membranes
Parameters: species or system beef (bovine)
Settings: [^125 I](Sar^1,Ile^8)AngII, beef adrenal membranes, 60 min, room temperature
Excerpt: Beef adrenals are obtained from a local slaughter house (Maxwell-Cohen). [^125 I](Sar^1,Ile^8)AngII, S.A. 2200 Ci/mmole, is purchased from Dupont (NEN®, Boston, Mass.). All unlabeled AngII analogs, Dimethylsulfoxide (DMSO), nucleotides, bovine serum albumin (BSA) are purchased from Sigma Chemical Co., St. Louis, Mo. U.S.A.
Approximately sixteen (16) to twenty (20) beef adrenal glands are processed as follows: fresh adrenal glands received on crushed ice are cleaned of fatty tissues and the tough membranes encapsulating the glands are removed and discarded. The brownish tissue forming the adrenal cortex is scraped off and finely minced with scissors before homogenization. Care is taken to avoid contamination with medullary tissue during dissection. The scraped cortices are suspended in twenty volumes of an ice-cold buffer medium consisting of 10 mM Tris.HCl (pH 7.4 at 22° C.) and containing 1.0 mM EDTA and 0.2M sucrose. Unless otherwise indicated, all subsequent operations are done at 4° C. […] The homogenate is centrifuged first at low speed (3,000×g) for 10 min. […] This P2 pellet is discarded and the liquid phase is carefully decanted off in clean centrifuge tubes and recentrifuged at high speed (100,000×g) for 60 min. The translucent final pellet is harvested and combined in a small volume (20-50.0 ml) of 50.0 mM Tris.HCl buffer, pH 7.2. […] The pelleted membrane is reconstituted in 50.0 mM Tris.HCl buffer containing 0.1 mM of phenylmethylsulfonyl fluoride (PMSF) to give approximately a protein concentration of 2.5 mg per ml of tissue suspension. The membrane preparation is finally aliquoted in 1.0 ml volumes and stored at -70° C. until use in the binding assays. […]
The wells are left undisturbed for 60 min. at room temperature. […] The filters are removed from the filter grid and counted in a Parkard® Cobra Gamma Counter for 1 min. […] The binding data are analyzed by the non-linear interactive "LUNDON-1" program (LUNDON SOFTWARE Inc., Cleveland, Ohio U.S.A.).

IC50 [µM]	Compound
0.18	CCCCc1nc2ccc(C3=NN[C@H]4C(=O)N(C)C(=O)[C@@H]34)cc2c(=O)n1Cc1ccc(-c2ccccc2-c2nnn[nH]2)cc1 (relative stereo) [Example 7]
0.88	CCCCc1nc2ccc([C@@]3(C)NN[C@@H]4C(=O)N(C)C(=O)[C@@H]43)cc2c(=O)n1Cc1ccc(-c2ccccc2-c2nnn[nH]2)cc1 (relative stereo) [Example 10, (3-alpha,3aalpha,6aalpha)-3-[2-butyl-3,4-dihydro-4-oxo-3-[[2'-(1H-tetrazol-5-yl)-[1,1'-biphenyl]-4-yl]methyl]-6-quinazolinyl]-2,3,3a,6a-tetrahydro-3,5-dimethyl-pyrrolo[3,4-c]pyrazole-4,6(1H,5H)-dione]
